Where a name gives a salt, the structure may show the parent alone.
Settings: use of CAPTISOL

increase in water solubility: > 5 fold
Compound: OC(COc1cccc2ncccc12)CN1CCN([C@@H]2c3ccccc3[C@@H]3[C@H](c4ccccc42)C3(F)F)CC1 (stereo partly shown) [zosuquidar trihydrochloride]

— US20070010486A1 (priority 2005, published 2007)
